From US8906357B2, “Treatment of multiple sclerosis with masitinib” (AB Science, priority 2010, dated 2014)
Several values for one entry are separate records, joined by “and”; a condition that tells them apart may be missing. Identical values can stand only once. Entries after “also recorded” stand apart in the source; their conditions may differ. Like-named read-outs stand apart in the source and are kept apart here.

What was measured:
[1] = system: human cord blood MCs; conditions: cited from earlier work
[2] = system: mouse EAE model of MS; assay: Mouse EAE model of MS (MOG-induced disease in C57BL/6 mice), daily clinical score; assay type: in vivo; conditions: days 26-35
Description: The ability and effect of masitinib in the inhibition of MC function in MS was explored using the EAE murine model. The myelin oligodendrocyte glycoprotein (MOG)-induced disease in C57BL/6 mice is considered to be a model for all progressive foinis of MS. C57BL/6 mice were immunized with 300 ng MOG35-55 peptide (an immunological target in the human disease) on days 0 (in complete Freund's adjuvant) and 7 (in incomplete Freund's adjuvant) and 250 ng pertussis was administered intravenously on days 0 and 2. Mice were scored daily by visual assessment of symptoms on a scale of 0-5 where 1 denotes a flaccid tail, 2 denotes hind limb weakness, 3 denotes hind limb paralysis, 4 denotes an inability to right from supine and 5 indicates death. Statistical analyzes of significance between mean clinical scores were performed using Bonferroni's Multiple Comparison Test-One way ANOVA or paired t tests. Statistical analyses were performed for the daily intervals between days 26-35. Five mice per experimental group were administrated the following treatment every day from the first day of immunization (day 0): • Vehicle (PBS) • Masitinib 25 mg/kg, 2 times per day, intraperitoneal injection • Masitinib 12.5 mg/kg, 2 times per day, intraperitoneal injection

[3] = system: patients with RRMS or rSPMS
Description: A multicenter, open-label, non-controlled, proof-of-concept clinical trial, designed to evaluate the efficacy and safety of oral masitinib administered at 3 or 6 mg/kg/day for 36 weeks in patients with RRMS or rSPMS.
Eligible patients should have had at least one active gadolinium lesion at any of the three MRI performed during an 8 week run-in period and an EDSS score within the range of 2.0 to 6.5 inclusive.

[4] = system: patients with PPMS or rfSPMS;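 also: oral masitinib started at 3 or 6 mg/kg/day split twice daily, with up to two 1.5 mg/kg/day increases permitted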
Description: Patients were randomized to receive orally administered masitinib at an initial dose of 3 or 6 mg/kg/day b.i.d, with two dose increases of 1.5 mg/kg/day permitted in the event of lack of activity and manageable toxicity. Masitinib and placebo were supplied as 100 or 200 mg tablets. The initial study had three arms but this was amended to close the 3 mg/kg/day bid arm after approximately 1 year.
MS evaluations were performed at screening, at week 0 (baseline), at month 1, 2, 3, 6, 9, 12, 18 and 24 or at the withdrawal visit. […] Masitinib tolerance was assessed by clinical and biological safety parameters.
Patients having SPMS with relapse in the 2 years before inclusion were excluded. No oral or parenteral concomitant corticosteroids were permitted for the duration of study, except in case of protocol-defined demyelinating event (methylprednisolone at 1 g/day for 3 days). No immunomodulating, immunosuppressing, chemotherapy and paracetamol concomitant administration were permitted for the duration of the study. Concomitant analgesic without anti-inflammatory action and oral narcotic analgesic were not allowed on the day of a study visit until all efficacy evaluations were completed. Concomitant physical therapy was allowed in patients already receiving such therapy at study entry. To manage rash, a mandatory concomitant treatment (cetirizine, 10 mg/day for 30 days) was combined with masitinib.
The latter is a multidimensional, MS-specific outcome measure, comprising of a timed 25-foot walk (T25FW) test measuring leg function and ambulation, a 9-hole peg test (9-HPT) measuring arm and hand function and a Paced Auditory Serial Addition Test 3 seconds (PASAT-3″) measuring cognitive function. The MSFC was calculated as described in the National Multiple Sclerosis Society MSFC administration and scoring manual by averaging the z-scores from each components of the MSFC.
Adverse events (AE) were described by duration, intensity, relation to masitinib and course of action. Intensities were graded either mild (signs and symptoms are present without functional repercussions), moderate (there are functional repercussions without putting the patient's health at risk), or severe (functional alterations or incapacity or definite risk for the patient health).

[5] = system: wild-type and juxtamembrane-mutated c-Kit receptors; conditions: results in cell cycle arrest and apoptosis of c-Kit dependent cell lines; cited from earlier work
[6] = during the treatment period (W0 to W36)

In the case of Cc1ccc(NC(=O)c2ccc(CN3CCN(C)CC3)cc2)cc1Nc1nc(-c2cccnc2)cs1 [masitinib, 4-(4-methylpiperazin-1-ylmethyl)-N-[4-methyl-3-(4-pyridin-3ylthiazol-2-ylamino)phenyl]benzamide], the FcER1-mediated degranulation [1] is given as “inhibition”, the “p value, mean clinical score, vehicle versus masitinib 12.5 mg/kg” value ([2]; 12.5 mg/kg 2 times per day intraperitoneal) is given as “p < 0.001” and the “p value, mean clinical score, vehicle versus masitinib 25 mg/kg” value ([2]; 25 mg/kg 2 times per day intraperitoneal) is given as “p < 0.001”. The “p value, mean clinical score, masitinib 25 mg/kg versus masitinib 12.5 mg/kg” value ([2]; 2 times per day intraperitoneal) was “p < 0.001”, the “mean clinical score relative to vehicle” value ([2]; both doses (25 and 12.5 mg/kg 2 times per day i.p.)) was “significant differences in mean clinical score; also recorded: significant reduction in disease” and the tolerability overall ([3]; 3 or 6 mg/kg/day oral) was “relatively well tolerated”. The EDSS ([3]; 36-week study) was “neither improvement nor progression”, the “average number of T1 lesions” value ([3]; after 12 weeks of treatment (run-in period 5.35), 4 patients) was 1.5 lesions and the “average volume of T1 lesions” value ([3]; after 12 weeks of treatment (run-in period 777 mm^3)) was 54 mm^3. The “average number of T1 lesions” value ([3]; after 20 weeks of treatment (run-in period 5.35), 4 patients) was 0.25 lesions, the “average volume of T1 lesions” value ([3]; after 20 weeks of treatment (run-in period 777 mm^3)) was 40 mm^3 and the “T1 gadolinium-enhancing lesion number” value ([3]; all patients, at consecutive time points during the study) was “reduced to none”. For the same molecule, the “patients in whom both number and volume of T1 lesions decreased” value ([3]; during masitinib treatment) was 3/4, the “average number of T1 lesions” value [3, 6] was 1.0 lesion and the “average volume of T1 lesions” value [3, 6] was 99 mm^3. The “number and volume of T2 hyperintense lesions and T1 hyperintense lesions” value ([3]; during treatment) was “remained globally stable”, the death ([3]; human, in vivo) was “No death” and the “total AEs reported during the treatment period” value ([3]; in two patients, all at doses of ≧6 mg/kg/day) was 11. For the same molecule, the “patients experiencing relapses during treatment” value ([3]; one patient out of four, three relapses) was 25%, the EDSS score maintained ([3]; patient in the study extension phase, to W84) was 2.5 and the “relapse-free duration of individual patients” value ([3]; three patients, respectively) was 7 months and 11.5 months and 25 months. The “MSFC mean percentage change from baseline” value (“MSFC mean percentage change” below) ([4]; All (masitinib n = 24), M3, LOCF) was 78%, the “MSFC mean percentage change” value ([4]; All (masitinib n = 24), M3, LOCF, listed as Masitinib) was 78 ± 284% and the “MSFC mean percentage change” value ([4]; All (masitinib n = 24), M6, LOCF) was 156 ± 274%. For the same molecule, the “MSFC mean percentage change” value ([4]; All (masitinib n = 24), M9, LOCF) was 70 ± 267%, the “MSFC mean percentage change” value ([4]; All (masitinib n = 24), M12, LOCF) was 103 ± 189% and the “MSFC mean percentage change” value ([4]; All (masitinib n = 24), M18, LOCF) was “+96%”. The “MSFC mean percentage change” value ([4]; All (masitinib n = 24), M18, LOCF, listed as Masitinib) was 96 ± 191%, the “MSFC mean percentage change” value ([4]; PPMS (masitinib n = 9), M3, LOCF) was “+108%” and the “MSFC mean percentage change” value ([4]; PPMS (masitinib n = 9), M3, LOCF, listed as Masitinib) was 108 ± 435%. For the same molecule, the “MSFC mean percentage change” value ([4]; PPMS (masitinib n = 9), M6, LOCF) was 202 ± 353%, the “MSFC mean percentage change” value ([4]; PPMS (masitinib n = 9), M9, LOCF) was 56 ± 410% and the “MSFC mean percentage change” value ([4]; PPMS (masitinib n = 9), M12, LOCF) was 134 ± 268%. The “MSFC mean percentage change” value ([4]; PPMS (masitinib n = 9), M18, LOCF) was “+134%”, the “MSFC mean percentage change” value ([4]; PPMS (masitinib n = 9), M18, LOCF, listed as Masitinib) was 134 ± 268% and the EDSS score course ([4]; PPMS population) was “stable”. The “Mean 9-HPT raw score change” value ([4]; at month 18) was -1.6 s, the “Mean PASAT-3″ raw score change” value ([4]; at month 18) was “+6.0” and the “Mean T25FW raw score change” value ([4]; at month 18) was “+1.6 seconds”. For the same molecule, the death ([4]; during the study) was “No death”, the “MSQLI subscale SSS, mean percentage change from baseline” value ([4]; ex-post, n = 4) was −6.9 ± 29.0% and the “MSQLI subscale VIS, mean percentage change from baseline” value ([4]; ex-post, n = 4) was 0 ± 0%. The “MSQLI subscale SF-36, mean percentage change from baseline” value ([4]; ex-post, n = 5) was 12.7 ± 24.3%, the “MSQLI subscale PDQ, mean percentage change from baseline” value ([4]; ex-post, n = 6) was 1.1 ± 11.7% and the “MSQLI subscale BoCS, mean percentage change from baseline” value ([4]; ex-post, n = 7) was −3.1 ± 8.8%. For the same molecule, the “MSQLI subscale MSSS, mean percentage change from baseline” value ([4]; ex-post, n = 7) was 6.2 ± 9.4%, the “MSQLI subscale PES, mean percentage change from baseline” value ([4]; ex-post, n = 7) was −3.9 ± 12.2% and the “MSQLI subscale BLCS, mean percentage change from baseline” value ([4]; ex-post, n = 8) was 21.5 ± 72.4%. For the same molecule, the “MSQLI subscale MFIS, mean percentage change from baseline” value ([4]; ex-post, n = 8) was −3.0 ± 14.9%, the “MSQLI subscale MHI, mean percentage change from baseline” value ([4]; ex-post, n = 9) was 15.2 ± 25.99% and the “number of AEs reported by investigators” value ([4]; masitinib group n = 27) was 100. The “patients reporting AEs (adverse events)” value ([4]; masitinib group n = 27) was 85%, the “patients reporting a serious, non-fatal AE” value ([4]; masitinib group n = 27) was 33% and the “patients reporting a severe AE suspected to be related to therapy” value ([4]; masitinib group n = 27) was 26%. The “patients with an AE leading to masitinib discontinuation” value ([4]; masitinib group n = 27) was 26%, the “Asthenia, number of patients” value ([4]; masitinib n = 27) was 11 and the “Asthenia, percent of patients” value ([4]; masitinib n = 27) was 41%. The “Diarrhea, number of patients” value ([4]; masitinib n = 27) was 3, the “Diarrhea, percent of patients” value ([4]; masitinib n = 27) was 11% and the “Nausea, number of patients” value ([4]; masitinib n = 27) was 7. For the same molecule, the “Nausea, percent of patients” value ([4]; masitinib n = 27) was 26%, the “Rash, number of patients” value ([4]; masitinib n = 27) was 3 and the “Rash, percent of patients” value ([4]; masitinib n = 27) was 11%. For the same molecule, the “Urinary Tract Infection, number of patients” value ([4]; masitinib n = 27) was 3, the “Urinary Tract Infection, percent of patients” value ([4]; masitinib n = 27) was 11% and the “Weight Decreased, number of patients” value ([4]; masitinib n = 27) was 3. For the same molecule, the “Weight Decreased, percent of patients” value ([4]; masitinib n = 27) was 11%, the “effect on MSQLI subscales (SF-36, MFIS, PES, PDQ, MHI, MSSS)” value ([4]; over the course of treatment) was “improved” and the “mean change in EDSS” value ([4]; overall, over 18 months) was under 0.5. For the same molecule, the “MSFC mean percentage change” value ([4]; rfSPMS (masitinib n = 15), M3, LOCF) was “+60%”, the “MSFC mean percentage change” value ([4]; rfSPMS (masitinib n = 15), M3, LOCF, listed as Masitinib) was 60 ± 152% and the “MSFC mean percentage change” value ([4]; rfSPMS (masitinib n = 15), M6, LOCF) was 129 ± 223%. For the same molecule, the “MSFC mean percentage change” value ([4]; rfSPMS (masitinib n = 15), M9, LOCF) was 78 ± 146%, the “MSFC mean percentage change” value ([4]; rfSPMS (masitinib n = 15), M12, LOCF) was 84 ± 130% and the “MSFC mean percentage change” value ([4]; rfSPMS (masitinib n = 15), M18, LOCF) was “+73%”. For the same molecule, the “MSFC mean percentage change” value ([4]; rfSPMS (masitinib n = 15), M18, LOCF, listed as Masitinib) was 73 ± 131%, the EDSS score course ([4]; rfSPMS population) was “remained stable” and the “brain volume (MS-related imaging)” value ([4]; throughout the study, masitinib group) was “two patients experienced a brain volume increase”. For the same molecule, the “inhibitory effect on c-Kit receptors” value [5] was “strong inhibitory effect”.
